Here are results for eight molecules from patent publication US8507431B2, “Methods for accelerating wound healing by administration of a preadipocyte modulator or an adipocyte modulator” (HealOr Ltd., priority 2003, dated 2013).

The test system of one assay is primary keratinocytes. Briefly: Keratinocytes migration (wound scratch) assay in vitro. It counts as cell-based, murine. The settings on record: for keratinocyte migration in scratch assay vs control and insulin: treated daily, 24 and 48 hrs. As to the method:
Primary keratinocytes were isolated from newborn skin as described in reference 18. Keratinocytes were cultured in Eagle's Minimal Essential Medium (EMEM) containing 8% Chelex (Chelex-100, BioRad) treated fetal bovine serum. To maintain a proliferative basal cell phenotype, the final Ca^2+ concentration was adjusted to 0.05 mM. Experiments were performed five to seven days after plating.
Primary mouse keratinocytes were untreated or treated with, PPARγ antagonist GW9662 (μM) or PPARγ agonist troglitazone (μM). Wound Scratch Assay was performed 24 hours following treatment, and representative fields were photographed immediately after the wounding (Day 0) and 48 hours later (Day 2). The average of wound closure represented as percentage in comparison to the initial width of the wound scratch (% of wound closure).
The effect of inhibiting or enhancing the activity of peroxisome proliferators-activated receptor gamma (PPARγ) on keratinocytes migration was evaluated utilizing the in vitro migration assay. Thus, primary keratinocytes were isolated and plated on 5 ml non-coated dishes until confluence in low Ca^2+ medium, and an artificial crossover scratch was formed in each dish with a 200 μm tip. Cells were either non-treated (control) or treated daily with PPARγ modulators.
In order to test the effect of different adipokines on keratinocyte migration to close the wound gap, an in vitro scratch assay was used. Thus, primary keratinocytes were isolated and plated on 5 ml non-coated dishes until confluence in low Ca^2+ medium, and an artificial crossover scratch was formed in each dish with a 200 μm tip. Cells were either non-treated (control) or treated daily with insulin (0.1 unit/ml), hIL-4 (2 ng/ml), hIL-6 (0.2 ng/ml), leptin (4 μg/ml) or apelin (0.02 μg/ml or 0.2 μg/ml).
(§1) Primary keratinocytes/fibroblasts were isolated and plated on 5 ml non-coated dishes until confluence in low Ca^2+ medium, and an artificial cross-over scratch was formed in each dish with a 200 μm tip. Then, cells were either non-treated or treated with visfatin (0.1 μg/ml or 0.0.1 μg/ml) or insulin (0.1 unit/ml) for up to 48 hrs.

The test system of assay [1] is Full thickness wounds on the back of C57BL mice. Put plainly: Wound healing assay, full thickness incision wounds in mice. It counts as in vivo. The settings on record: for epidermal migration vs PBS control (K14 staining) / wound contraction vs PBS control / dermal contraction (both dermal wound sides in a single field, H&E): topical daily for 6 days; for epidermal migration vs PBS control (K14 staining) / wound contraction vs PBS control / dermal contraction (both dermal wound sides in a single field, H&E) / wound area compared with the buffer control (morphological analysis): GW9662 2 μM, adipsin 1 μM; for wound contraction vs PBS control / wound area compared with the buffer control (morphological analysis): troglitazone 100 μM; for dermal contraction (both dermal wound sides in a single field, H&E): control negative; for wound area compared with the buffer control (morphological analysis): topical daily for six days, insulin 10 nM, troglitazone 100 μM + insulin 10 nM. As to the method:
[…] […] Wound biopsies were sampled, processed and analyzed morphologically and/or histochemically and/or immunohistochemically for various wound healing parameters, i.e., wound contraction, adipocytes migration and differentiation, epidermal migration, and epidermal closure.
The wound area was measured and compared to untreated control wounds; and wound contraction was calculated as the percent reduction of the wound area.
Wound biopsies were fixed in 4% paraformaldehyde then dehydrated in increasing concentrations of ethanol (50-100%). The dehydrated preparations were immersed first in xylene, then paraffin and xylene 1:1 solution, then in pure melted paraffin (60° C.). The paraffin blocks were then sectioned by a microtome and the sections were mounted on Super Frost^+™ slides.
Paraffin embedded wound-section slides were incubated at 60° C. for 60 minutes and were de-parafinated by washing the slides twice with toluene (100%) for 10 minutes, then rehydrated in decreasing concentration of ethanol (100-50%) for 5 minutes each. The slides were stained with hematoxylin (ready to use solution) for 10 minutes, rinsed with water, stained with eosin (0.5% in DDW) for 5 minutes, and then washed with 70% ethanol by 2 quick immersions. Thereafter, the slides were dehydrated by washing once with 95% ethanol for 2 minutes, twice with 100% ethanol for 5 minutes, and twice with xylene (100%) for 10 minutes, then mounted with entellan (MERCK Darmstadt Germany).
Paraffin embedded wound-section slides were de-parafinated as described for H&E staining above and incubated in blocking solution (5% BSA and 0.5% Tween 20™ in PBS) for 1 hour. The slides were then incubated with either anti-keratin 1 (1:500) or anti-keratin 14 (1:1000) antibody in blocking solution (5% BSA and 0.5% Tween 20™ in PBS) at 4° C. overnight. Thereafter, the slides were washed five times with washing buffer (5% Tween 20™ in PBS for K14 and 0.5% Tween 20™ in PBS for K1) followed by incubation with biotinilated goat anti-rabbit antibody (ZYMED Laboratories Inc.) suspended (1:200) in blocking solution (5% BSA and 0.5% Tween 20™ in PBS) for 1 hour at room temperature. The slides were then washed three times with washing buffer (5% Tween 20™ in PBS) followed by incubation with an enzyme streptavidin conjugate in blocking solution (1:300) for 1 hour at room temperature. Thereafter, the slides were washed twice with washing buffer (5% Tween 20™ in PBS) for 5 minutes, once with PBS for 5 minutes and once with TRIS buffer (0.05 M in PBS) for 5 minutes, followed by incubation in DAB reagent for color development. The reaction was terminated by immersing the slides in double distilled water followed by counterstaining with eosin (ICN, 0.5% in DDW). The slides were then washed with 70% ethanol by 2 quick immersions; dehydrated by washing once again with 95% ethanol for 2 minutes, twice with 100% ethanol for 5 minutes, and twice with xylene (100%) for 10 minutes; and mounted with entellan (MERCK Darmstadt Germany).
The effect of inhibiting or enhancing the activity of PPARγ using PPARγ antogonist and agonist, respectively, on wound healing was also evaluated in vivo. […]
The effect of adipsin (complementing Factor D, which is secreted from adipocytes) on wound healing was evaluated in vivo. […] The mice were sacrificed 6 days after wounding and the wounds were then analyzed. […] In addition, adipsin increased epidermal closure from about 15% to about 30%, and increased keratinocytes migration from about 30% to about 65%, as compared with the buffer control (FIG. 6).
Full thickness 20 mm incision wounds were performed on 8-10 week old C57BL mice, 6 mice per group. The wounds were treated daily for 7 days with PBS (control), adiponectin (1 μg/ml) or visfatin (0.01 μg/ml). Skin biopsies were paraffin embedded and slide sections representing the widest area of the wound were prepared. Sections were then subjected to histochemical staining such as H&E and Masson Trichrome (collagen). […]

Another assay concerns primary skin fibroblasts. Put plainly: Fibroblasts scratch migration assay in vitro. The class given is cell-based. The settings on record: 24 hrs; hIL-8 5 ng/ml, hIL-1β 0.2 ng/ml, hIL-4 2 ng/ml, apelin 0.2 μg/ml, adiponectin 1 μg/ml. As to the method: Primary skin fibroblasts were isolated and plated on 5 ml non-coated dishes until confluence in low Ca^2+ medium, and an artificial crossover scratch was formed in each dish with a 200 μm tip. Cells were either non-treated (control) or treated with insulin (0.1 unit/ml), hIL-8 (5 ng/ml), hIL-1β (0.2 ng/ml), hIL-4 (2 ng/ml), apelin (0.2 μg/ml) or adiponectin (1 μg/ml); and collected after 24 hrs.
as §1

[2] abbreviates: hIL-6 0.2 ng/ml, leptin 4 μg/ml, apelin 0.02 μg/ml.
Setting [3] is: C57BL mice, insulin 1 μM topical daily for six days, untreated about 60%.

“Also recorded” adds a separate entry of the source.

As to `O=C(Nc1ccccc1)c1cc([N+](=O)[O-])ccc1Cl` [GW9662, 2-chloro-5-nitrobenzanilide, reference compound], in the assay with primary keratinocytes (scratch with 200 μm tip, Day 2 (48 hours), GW9662 2 μM, troglitazone 100 μM), the “keratinocytes migration in vitro vs untreated control” value is listed as “promoted keratinocytes migration”. In assay [1], the “epidermal migration vs PBS control (K14 staining)” value is recorded as “promoted; also recorded: migrating toward covering the wound gap”; the “wound contraction vs PBS control” value is “promoted wound contraction”; the “dermal contraction (both dermal wound sides in a single field, H&E)” value was “positive dermal contraction”; the “wound area compared with the buffer control (morphological analysis)” value was “substantially smaller”.
As to IL-1: adipokine hIL-1β, in the assay on primary skin fibroblasts, the “fibroblasts migration to close the wound gap vs non-treated and insulin” value is “promoted fibroblasts migration to completely close the wound gap”.
As for IL-6: adipokine hIL-6, the “keratinocyte migration in scratch assay vs control and insulin” value in the assay with primary keratinocytes (setting [2]) is “not as significantly”.
Consider IL-8: adipokine hIL-8, for which the “fibroblasts migration to close the wound gap vs non-treated and insulin” value in the assay on primary skin fibroblasts is “smaller yet significant effect”.
For the molecule adipsin, the “keratinocytes migration in vitro (summary statement)” value with primary keratinocytes (no concentration given) was “substantially accelerated keratinocytes migration in vitro”. Further, the “epidermal closure, percent of wounds positive (K14)” value in assay [1] (adipsin 1 μM topical daily, buffer control about 15%) is “about 30%”. The “keratinocytes migration, percent of wounds positive (K14)” value in assay [1] (adipsin 1 μM topical daily, buffer control about 30%) is recorded as “about 65%”. Also, in assay [1], the “epidermal migration vs PBS control (K14 staining)” value is “migrating toward covering the wound gap”; the “wound contraction vs PBS control” value is given as “substantially promoted wound contraction”; the “dermal contraction (both dermal wound sides in a single field, H&E)” value is “positive dermal contraction”; the “wound area compared with the buffer control (morphological analysis)” value is “substantially smaller”.
apelin: the “keratinocyte migration in scratch assay vs control and insulin” value in the assay with primary keratinocytes (hIL-4 2 ng/ml, apelin 0.2 μg/ml) is recorded as “keratinocyte migration was highly significant”; in the assay with primary keratinocytes (setting [2]), “not as significantly”. The “fibroblasts migration to close the wound gap vs non-treated and insulin” value with primary skin fibroblasts is “promoted fibroblasts migration to completely close the wound gap”.
insulin [reference compound]: in assay [1] (setting [3]), the “migrating keratinocytes observed across the wound gap, percent of wounds (K14 staining)” value is given as “about 90%” and the “recruited adipocytes present, percent of wounds (H&E staining)” value was about 80%. Moreover, the “wound area compared with the buffer control (morphological analysis)” value in assay [1] is listed as “substantially smaller”.
Take leptin: in the assay with primary keratinocytes (setting [2]), the “keratinocyte migration in scratch assay vs control and insulin” value is reported as “not as significantly”.
